We go through two molecules from ChEMBL document CHEMBL1156897, “New potential antitumor compounds from the plant Aristolochia manshuriensis as inhibitors of the CDK2 enzyme” (Bioorg Med Chem Lett, 2010).

In experiment [1] the target is Cyclin-dependent kinase 2 (Homo sapiens, UniProt P24941). Description: Inhibition of CDK2.
The target of experiment [2] is Cyclin-dependent kinase 1 (Homo sapiens, UniProt P06493). Description: Inhibition of CDC2.
The target in experiment [3] is Cyclin-dependent kinase 4 (Homo sapiens, UniProt P11802). The experiment is described as follows: Inhibition of CDK4.
Experiment [4] is described as follows: Inhibition of MAPK.

Cyclin-dependent kinase 1, sequence (P06493 whole entry): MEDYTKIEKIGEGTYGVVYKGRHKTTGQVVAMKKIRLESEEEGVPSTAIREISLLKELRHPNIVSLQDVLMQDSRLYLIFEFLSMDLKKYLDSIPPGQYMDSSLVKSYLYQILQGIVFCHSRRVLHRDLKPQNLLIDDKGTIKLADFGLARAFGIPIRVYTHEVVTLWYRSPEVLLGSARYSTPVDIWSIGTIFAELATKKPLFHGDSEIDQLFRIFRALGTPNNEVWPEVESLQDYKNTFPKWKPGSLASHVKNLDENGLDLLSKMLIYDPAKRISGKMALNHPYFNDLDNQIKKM
Cyclin-dependent kinase 4, sequence (P11802 whole entry): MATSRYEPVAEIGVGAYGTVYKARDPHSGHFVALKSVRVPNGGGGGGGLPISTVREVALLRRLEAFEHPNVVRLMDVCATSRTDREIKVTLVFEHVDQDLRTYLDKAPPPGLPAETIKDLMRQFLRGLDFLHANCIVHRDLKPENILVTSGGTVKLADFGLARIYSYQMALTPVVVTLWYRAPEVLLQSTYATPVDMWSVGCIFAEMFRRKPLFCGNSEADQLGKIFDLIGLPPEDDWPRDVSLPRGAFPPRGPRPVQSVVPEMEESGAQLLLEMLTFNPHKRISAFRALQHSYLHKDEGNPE

Consider `COc1c(O)cc2c3c(cc4ccc(O)cc4c13)NC2=O` [ARISTOLACTAM AIIIA], for which the half-inhibitory concentration (IC50) (as a rule, the concentration that inhibits the measured activity by half) in experiment [1] stood at 140 nM; in experiment [2] it was 214 nM; in experiment [3] it was 1420 nM; in experiment [4] it was 35300 nM.

The molecule `O=C1Nc2cc3c(O[C@@H]4O[C@H](CO)[C@@H](O)[C@H](O)[C@H]4O)cccc3c3c4c(cc1c23)OCO4` came in with a concentration for half-maximal inhibition (IC50) in experiment [1] above 10000 nM.
